Laboratory results from patent US4642341A, “Carbapenem antibiotics” (priority 1985, dated 1987).
Converted amounts (≈) assume the structure as drawn. Where two headings read alike, the source gives them in different places.

How the values were obtained:
E. cloacae A-9656 = test: Minimum Inhibitory Concentration, tube dilution; type: cell-based; conditions: Enterobacter cloacae, A9656; overnight 37° C.; table 6
S. pneumoniae A-9585 = test: Minimum Inhibitory Concentration, tube dilution; type: cell-based; conditions: Streptococcus pneumoniae, A9585, overnight 37° C.; table 6
H. influenzae A21518 = test: Minimum Inhibitory Concentration, tube dilution; type: cell-based; conditions: Haemophilus influenzae, overnight 37° C., table 6
P. mirabilis A9900 = test: Protective effect, intramuscular treatment of infected mice (table 7); type: in vivo; conditions: Proteus mirabilis, A9900, im; i.m. 1 and 3.5 hours post-infection; ~1×10^7 organisms i.p.; read-out: PD50 /treatment
Experimental: (§1) Drugs were administered i.m. 0 to 2 hours post-infection (A9606) or 1 and 3.5 hours post-infection for the others.

S. aureus A9606 = test: as above; type: in vivo; conditions: Staphylococcus aureus, A9606, im; i.m. 0 to 2 hours post-infection; ~1×10^9 organisms i.p.; read-out: PD50 /treatment
Experimental: as §1

P. aeruginosa A20481 = test: as above; type: in vivo; conditions: Pseudomonas aeruginosa, A20481, im; i.m. 1 and 3.5 hours post-infection; ~1×10^5 organisms i.p.; read-out: PD50 /treatment
Experimental: as §1

M. morganii A15153 = test: Minimum Inhibitory Concentration, tube dilution; type: cell-based; conditions: Morganella morganii, A15153, overnight 37° C.; table 6
S. faecalis A20688 = test: Minimum Inhibitory Concentration, tube dilution; type: cell-based; conditions: Enterococcus faecalis, A20688, overnight 37° C.; table 6; read-out: MIC
S. aureus A-9537 = test: Minimum Inhibitory Concentration, tube dilution; type: cell-based; conditions: Staphylococcus aureus, table 6, read-out: MIC
P. aeruginosa A-9843A = test: Minimum Inhibitory Concentration, tube dilution; type: cell-based; conditions: Pseudomonas aeruginosa, A9843A, overnight 37° C.; table 6; read-out: MIC
E. coli A15119 = test: Minimum Inhibitory Concentration, tube dilution; type: cell-based; conditions: Escherichia coli, A15119, overnight 37° C.; table 6
[1] = Pharmacokinetic parameters in the mouse after intramuscular dose; type: in vivo, mice; conditions: im, 20 mg/kg; for AUC / Cmax / half-life: blood; for half-life: read-out: T1/2 (blood); for dose excreted: urine, read-out: Urine Recovery
Description: Also shown is the urinary recovery in the mice.
Compounds were solubilized in 0.1 M phosphate buffer pH 7.

P. aeruginosa A21213 = test: Minimum Inhibitory Concentration, tube dilution; type: cell-based; conditions: Pseudomonas aeruginosa
S. pyogenes A-9604 = test: Minimum Inhibitory Concentration, tube dilution; type: cell-based; conditions: Streptococcus pyogenes, A9604, overnight 37° C.; table 6
P. vulgaris A21559 = test: Minimum Inhibitory Concentration, tube dilution; type: cell-based; conditions: Proteus vulgaris, A21559, overnight 37° C.; table 6
P. aeruginosa A9843A = test: animal or person; type: in vivo, mice; conditions: Pseudomonas aeruginosa, in Mus musculus, im, 3.5 h, read-out: PD50 /treatment
Experimental: as §1

E. cloacae A9659 = test: Minimum Inhibitory Concentration, tube dilution; type: cell-based; conditions: Enterobacter cloacae, A9659, overnight 37° C.; table 6; read-out: MIC
E. coli A20341-1 = test: Minimum Inhibitory Concentration, tube dilution; type: cell-based; conditions: Escherichia coli, A203411, overnight 37° C.; table 6
K. pneumoniae A20468 = test: Minimum Inhibitory Concentration, tube dilution; type: cell-based; conditions: Klebsiella pneumoniae
[2] = Half-life in phosphate buffer pH 7.4; type: physicochemical; conditions: phosphate buffer
Experimental: To a solution of p-nitrobenzyl 3-[2-(1-pyridinium)ethylthio)]-6α[1-(R)-hydroxyethyl]-7-oxo-1-azabicyclo(3.2.0)hept-2-ene-carboxylate diphenylphosphate (0.16 g, 0.22 mmol) in wet tetrahydrofuran (10mL) was added ether (10mL), potassium phosphate monobasic-sodium hydroxide buffer pH 7.4 (16 mL, 0.05 M) and 10% palladium on charcoal (0.16 g). The resulting mixture was hydrogenated under 40 psi for 1 h at 25° C. The two phases were separated and the organic phase was extracted with water (2×3 mL). The aqeuous solutions were combined, washed with ether (2×10 ml) and poured on top of a column (1.5×6.2 cm) pf μ-bondapak C-18 after the traces of organic solvents have been removed under vacuum. Elution of the column with water gave after lyophylization of the appropriate fractions a yellowish powder 0.062 g (84%), ir (KBr) .nu.max : 3700-3000 (OH), 1755 (C--O of β-lactam), 1630 (pyridinium), 1590 cm^-1 (carboxylate), ^1 Hmr (D2 O): 1.22 (3H, d, J=6.4 Hz, CH3 CHOH), 2.92 (d, J=9.1 Hz, H-4), 2.97 (d, J=9.1 Hz, H-4), 3.20 (dd, J=2.5 Hz, J=6.1 Hz, H-6), 3.44 (t, J=6.0 Hz, CH2 S), 3.93 (dd, J=9.1 Hz, J=2.5 Hz, H-5), 4.82 (t, J=6.0 Hz, CH2 N^+), 8.04 (m, Hm of pyridinium), 8.5 (m, Hp of pyridinium), 8.82 (dd, J=3.2. Hz, J=1.1 Hz, Ho of pyridinium), uv (H2 O) λ max : 259 (ε5800), 296 (ε7030) mμ, .tau.1/2 =13.5 h (measured at a concentration of 10^-4 M in phosphate buffer pH 7.4 at 36.8° C.).

H. influenzae A-9833 = test: Minimum Inhibitory Concentration, tube dilution; type: cell-based; conditions: Haemophilus influenzae, A9833; overnight 37° C.; table 6; read-out: MIC
[3] = tested on: S. aureus A15097 (Meth-res.); test: Minimum Inhibitory Concentration, tube dilution; type: cell-based; conditions: Staphylococcus aureus, table 6
[4] = tested on: S. aureus A-9606 (Pen-res.); test: Minimum Inhibitory Concentration, tube dilution; type: cell-based; conditions: Staphylococcus aureus, Pen-res; table 6
P. mirabilis A-9900 = test: Minimum Inhibitory Concentration, tube dilution; type: cell-based; conditions: Proteus mirabilis, A9900, overnight 37° C.; table 6
B. fragilis A22862 = test: Minimum Inhibitory Concentration, tube dilution; type: cell-based; conditions: Bacteroides fragilis, overnight 37° C., table 6
P. rettgeri A22424 = test: Minimum Inhibitory Concentration, tube dilution; type: cell-based; conditions: Providencia rettgeri, overnight 37° C., table 6, read-out: MIC
B. fragilis A22696 = test: Minimum Inhibitory Concentration, tube dilution; type: cell-based; conditions: Bacteroides fragilis
S. marcescens A20019 = test: Minimum Inhibitory Concentration, tube dilution; type: cell-based; conditions: Serratia marcescens, A20019, overnight 37° C.; table 6

Row | Compound | MIC (S. pneumoniae A-9585) [µg/mL] | MIC (H. influenzae A21518) [µg/mL] | ED50 (P. mirabilis A9900) [mg/kg] | ED50 (S. aureus A9606) [mg/kg] | ED50 (P. aeruginosa A20481) [mg/kg] | MIC (M. morganii A15153) [µg/mL] | MIC (S. faecalis A20688) [µg/mL] | MIC (S. aureus A-9537; A9537, overnight 37° C.) [µg/mL] | MIC (P. aeruginosa A-9843A) [µg/mL] | MIC (E. coli A15119) [µg/mL] | AUC [1] [ng·h/mL] | Cmax [1] [ng/mL] | half-life [1] [h] | dose excreted [1] [%] | MIC (S. pyogenes A-9604) [µg/mL] | MIC (P. vulgaris A21559) [µg/mL] | ED50 (P. aeruginosa A9843A) [mg/kg] | MIC (E. coli A20341-1) [µg/mL] | MIC (H. influenzae A-9833) [µg/mL] | MIC [3] [µg/mL] | also measured
1 | Cc1cc(C)c[n+](CCSC2=C(C(=O)[O-])N3C(=O)[C@H]([C@@H](C)O)[C@H]3C2)c1 [Example 4] | 0.03 (≈ 0.0828 µM) | > 32 | ~22 | 0.4 | > 5 | 0.25 (≈ 0.69 µM) | 0.5 (≈ 1.38 µM) | 0.03 (≈ 0.0828 µM) | 32 (≈ 88.3 µM) | 0.06 (≈ 0.166 µM) | 5500 | 11400 | 0.173 | 49 ± 6 | 0.03 (≈ 0.0828 µM) | 0.03 (≈ 0.0828 µM) | 5 | 0.06 (≈ 0.166 µM) | > 32 | > 63 | MIC (E. cloacae A-9656): 0.25 µg/mL (≈ 0.69 µM); MIC (S. aureus A-9537; A9537, 50% serum): 0.03 µg/mL (≈ 0.0828 µM); MIC (P. aeruginosa A21213; A21213, overnight 37° C., table 6, read-out: MIC): 2 µg/mL (≈ 5.52 µM); MIC (E. cloacae A9659): 0.25 µg/mL (≈ 0.69 µM); MIC (K. pneumoniae A20468; A20468, overnight 37° C., table 6, read-out: MIC): 0.25 µg/mL (≈ 0.69 µM); half-life at 100 µM ([2]; pH 7.4, τ1/2 (half-life)): 16.9 h; MIC [4]: 0.5 µg/mL (≈ 1.38 µM); MIC (P. mirabilis A-9900): 0.25 µg/mL (≈ 0.69 µM); MIC (B. fragilis A22862): 0.06 µg/mL (≈ 0.166 µM); MIC (P. rettgeri A22424): 0.5 µg/mL (≈ 1.38 µM); MIC (B. fragilis A22696; overnight 37° C., table 6, read-out: MIC): 0.25 µg/mL (≈ 0.69 µM)
2 | C[C@@H](O)[C@H]1C(=O)N2C(C(=O)[O-])=C(SCC[n+]3ccc(CO)cc3)C[C@H]12 [Example 6, (5R, 6S)-3-[2-(4-hydroxymethylpyridinio)ethylthio]-6-[1-(R)-hydroxyethyl]-7-oxo-1-azabicyclo[3.2.0]hept-2-ene-2-carboxylate] | 0.03 (≈ 0.0823 µM) | > 32 | ~16 | ~3 | 0.6 | 0.03 (≈ 0.0823 µM) | 1 (≈ 2.74 µM) | 0.03 (≈ 0.0823 µM) | 4 (≈ 11 µM) | 0.03 (≈ 0.0823 µM) | 7700 | 15200 | 0.167 | 38 ± 13 | 0.03 (≈ 0.0823 µM) | 0.03 (≈ 0.0823 µM) | 0.9 | 0.03 (≈ 0.0823 µM) | > 32 | > 63 | MIC (P. aeruginosa A21213; A21213): 0.5 µg/mL (≈ 1.37 µM); MIC (K. pneumoniae A20468; A20468): 0.5 µg/mL (≈ 1.37 µM); MIC (S. marcescens A20019): 0.06 µg/mL (≈ 0.165 µM); half-life ([2]; pH 7.4, t1/2 (half-life)): 14.5 h; MIC [4]: 0.03 µg/mL (≈ 0.0823 µM); MIC (P. mirabilis A-9900): 0.06 µg/mL (≈ 0.165 µM); MIC (B. fragilis A22862): 0.06 µg/mL (≈ 0.165 µM); MIC (B. fragilis A22696): 0.5 µg/mL (≈ 1.37 µM)
